From patent publication US9802937B2, “Substituted pyrazolo{4,3-D}pyrimidines as kinase inhibitors” (ORIGENIS GMBH, priority 2011, dated 2017)

Legend:
SYK kinase = target: T1, SYK kinase (Homo sapiens, UniProt P43405); test: SYK Assay (OMNIA KINASE ASSAY, SOX peptide fluorescence); type: biochemical; settings: apparent Ki calculated from the IC50 using the Cheng-Prusoff equation; 1 mM ATP, 30° C.; read-out: SYK Activities: Ki
T1 construct: purchased Invitrogen, Carlsbad
Method in brief: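 Apparent Ki values are derived by Cheng-Prusoff from IC50s of sigmoidal fits of reaction rate against compound concentration. Rates come from chelation-enhanced SOX fluorescence (λex 360/λem 485 nm, read every 30 s over 30 min) as the kinase phosphorylates 10 µM Omnia Tyr 7 peptide at 30 °C, with 1 mM ATP and 0.2 mM DTT.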

LRRK2 = LRRK2 (Homo sapiens, UniProt Q5S007); test: LRRK2-LRRK2 G2019S-Assay (LanthaScreen Eu Kinase Binding Assay); settings: 5 nM LRRK2 or their mutants, 10 nM tracer 236, RT 1 h; read-out: LRRK2 Activities: IC50
Method in brief: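 Kinase (wild type or mutant, 5 nM) mixed with Eu-anti-GST antibody (2 nM), then 10 nM Alexa Fluor 647 tracer 236 added. After 1 h at room temperature, the acceptor/donor (665/615 nm) FRET ratio was measured. IC50 was fitted from concentration–ratio curves.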

Chain of LRRK2 (Q5S007 970-2527 limits assumed): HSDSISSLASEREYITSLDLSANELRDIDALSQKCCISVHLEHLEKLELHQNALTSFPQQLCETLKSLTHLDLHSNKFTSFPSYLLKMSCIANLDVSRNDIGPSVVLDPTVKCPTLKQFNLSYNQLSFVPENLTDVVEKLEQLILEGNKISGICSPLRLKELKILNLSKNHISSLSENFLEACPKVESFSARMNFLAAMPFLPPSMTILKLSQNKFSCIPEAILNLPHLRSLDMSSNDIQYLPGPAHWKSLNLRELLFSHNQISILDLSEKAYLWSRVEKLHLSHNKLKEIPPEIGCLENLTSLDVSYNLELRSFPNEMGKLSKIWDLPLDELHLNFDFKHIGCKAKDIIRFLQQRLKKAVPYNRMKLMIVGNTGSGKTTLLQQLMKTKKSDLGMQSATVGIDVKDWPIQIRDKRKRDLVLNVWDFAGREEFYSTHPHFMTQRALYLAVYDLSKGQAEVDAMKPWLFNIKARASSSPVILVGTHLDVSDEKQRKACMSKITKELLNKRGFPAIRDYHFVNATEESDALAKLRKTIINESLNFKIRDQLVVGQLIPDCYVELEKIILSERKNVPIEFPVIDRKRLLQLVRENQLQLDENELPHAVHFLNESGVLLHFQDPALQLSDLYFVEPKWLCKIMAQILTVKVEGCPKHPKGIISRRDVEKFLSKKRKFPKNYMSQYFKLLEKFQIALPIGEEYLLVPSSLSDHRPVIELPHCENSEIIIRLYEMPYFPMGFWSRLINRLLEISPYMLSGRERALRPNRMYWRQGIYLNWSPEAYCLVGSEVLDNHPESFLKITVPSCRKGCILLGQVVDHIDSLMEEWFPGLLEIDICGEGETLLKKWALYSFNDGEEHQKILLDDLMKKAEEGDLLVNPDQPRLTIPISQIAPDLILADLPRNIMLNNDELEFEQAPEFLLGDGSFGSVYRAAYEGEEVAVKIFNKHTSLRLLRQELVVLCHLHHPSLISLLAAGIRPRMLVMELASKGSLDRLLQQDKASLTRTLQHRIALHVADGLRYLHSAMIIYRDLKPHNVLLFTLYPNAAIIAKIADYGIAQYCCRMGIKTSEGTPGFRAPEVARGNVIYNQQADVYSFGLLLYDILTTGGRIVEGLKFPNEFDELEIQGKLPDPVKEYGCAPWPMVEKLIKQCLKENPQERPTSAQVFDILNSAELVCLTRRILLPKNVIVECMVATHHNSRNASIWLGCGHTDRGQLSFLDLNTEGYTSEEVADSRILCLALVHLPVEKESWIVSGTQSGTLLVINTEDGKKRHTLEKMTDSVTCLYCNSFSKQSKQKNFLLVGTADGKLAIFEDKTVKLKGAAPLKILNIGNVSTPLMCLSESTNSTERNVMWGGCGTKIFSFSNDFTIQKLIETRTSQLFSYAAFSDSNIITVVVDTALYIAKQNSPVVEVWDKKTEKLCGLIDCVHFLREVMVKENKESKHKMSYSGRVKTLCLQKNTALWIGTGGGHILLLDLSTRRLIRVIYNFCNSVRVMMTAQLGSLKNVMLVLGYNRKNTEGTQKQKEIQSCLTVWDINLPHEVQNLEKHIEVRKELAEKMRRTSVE

Row | Ki (SYK kinase) [nM] | IC50 (LRRK2) [nM] | Compound
1 | 10 to 100 | 10 to 100 | CN1CCCc2ccc(Nc3nc(-c4cccs4)nc4cn[nH]c34)cc21 [Example #166, 1-methyl-N-(5-(thiophen-2-yl)-1H-pyrazolo[4,3-d]pyrimidin-7-yl)-1,2,3,4-tetrahydroquinolin-7-amine]
2 | < 10 | 100 to 1000 | O=C1CCc2ccc(Nc3nc(-c4ncco4)nc4cn[nH]c34)cc2N1 [Example #208, 7-((5-(oxazol-2-yl)-1H-pyrazolo[4,3-d]pyrimidin-7-yl)amino)-3,4-dihydroquinolin-2(1H)-one]
3 | 10 to 100 | 100 to 1000 | COc1ccc(Nc2nc(-c3ccncc3)nc3cn[nH]c23)cc1OC [Example #18, N-(3,4-dimethoxyphenyl)-5-(pyridin-4-yl)-1H-pyrazolo[4,3-d]pyrimidin-7-amine]
4 | 10 to 100 | 100 to 1000 | Oc1cccc(Nc2nc(-c3ccccc3)nc3cn[nH]c23)c1 [Example #65, 3-((5-phenyl-1H-pyrazolo[4,3-d]pyrimidin-7-yl)amino)phenol]
5 | < 10 | 100 to 1000 | CC(=O)N1CCN(c2ccc(Nc3nc(-c4cccc(S(N)(=O)=O)c4)nc4cn[nH]c34)cc2)CC1 [Example #237, 3-(7-((4-(4-acetylpiperazin-1-yl)phenyl)amino)-1H-pyrazolo[4,3-d]pyrimidin-5-yl)benzenesulfonamide]
6 | 10 to 100 | 100 to 1000 | CN(C)Cc1ccc(Nc2nc(-c3ccccc3F)nc3cn[nH]c23)cc1 [Example #311, N-(4-((dimethylamino)methyl)phenyl)-5-(2-fluorophenyl)-1H-pyrazolo[4,3-d]pyrimidin-7-amine]
7 | < 10 | 100 to 1000 | O=C1COc2ccc(Nc3nc(-c4cccs4)nc4cn[nH]c34)cc2N1 [Example #162, 6-((5-(thiophen-2-yl)-1H-pyrazolo[4,3-d]pyrimidin-7-yl)amino)-2H-benzo[b][1,4]oxazin-3(4H)-one]
8 | 10 to 100 | 100 to 1000 | CN1CCC(c2nc(Nc3ccc(N(C)C)cc3)c3[nH]ncc3n2)CC1 [Example #28, N1,N1-dimethyl-N4-(5-(1-methylpiperidin-4-yl)-1H-pyrazolo[4,3-d]pyrimidin-7-yl)benzene-1,4-diamine]
9 | 10 to 100 | 100 to 1000 | CN1CCC(c2nc(Nc3ccc4cn[nH]c4c3)c3[nH]ncc3n2)CC1 [Example #27, N-(1H-indazol-6-yl)-5-(1-methylpiperidin-4-yl)-1H-pyrazolo[4,3-d]pyrimidin-7-amine]
10 | 10 to 100 | 100 to 1000 | COc1ccccc1-c1nc(Nc2ccc(N3CCN(C)CC3)cc2)c2[nH]ncc2n1 [Example #108, 5-(2-methoxyphenyl)-N-(4-(4-methylpiperazin-1-yl)phenyl)-1H-pyrazolo[4,3-d]pyrimidin-7-amine]
11 | < 10 | 100 to 1000 | COc1ccc(-c2nc(Nc3ccc(N4CCN(C(C)=O)CC4)cc3)c3[nH]ncc3n2)cc1 [Example #170, 1-(4-(4-((5-(4-methoxyphenyl)-1H-pyrazolo[4,3-d]pyrimidin-7-yl)amino)phenyl)piperazin-1-yl)ethan-1-one]
12 | 10 to 100 | 100 to 1000 | COc1ccccc1-c1nc(Nc2ccc3c(c2)NCCO3)c2[nH]ncc2n1 [Example #110, N-(5-(2-methoxyphenyl)-1H-pyrazolo[4,3-d]pyrimidin-7-yl)-3,4-dihydro-2H-benzo[b][1,4]oxazin-6-amine]
13 | 100 to 1000 | 100 to 1000 | CNS(=O)(=O)c1cccc(Nc2nc(-c3cccs3)nc3cn[nH]c23)c1 [Example #265, N-methyl-3-((5-(thiophen-2-yl)-1H-pyrazolo[4,3-d]pyrimidin-7-yl)amino)benzenesulfonamide]
14 | 10 to 100 | 100 to 1000 | O=C(O)c1cccc(-c2nc(Nc3ccc(N4CCOCC4)cc3)c3[nH]ncc3n2)c1 [Example #156, 3-(7-((4-morpholinophenyl)amino)-1H-pyrazolo[4,3-d]pyrimidin-5-yl)benzoic acid]
15 | 10 to 100 | 100 to 1000 | CN1CCC(c2ccc(Nc3nc(-c4cccs4)nc4cn[nH]c34)cc2)CC1 [Example #209, N-(4-(1-methylpiperidin-4-yl)phenyl)-5-(thiophen-2-yl)-1H-pyrazolo[4,3-d]pyrimidin-7-amine]
16 | < 10 | 100 to 1000 | CC(=O)N1CCN(c2ccc(Nc3nc(-c4cscn4)nc4cn[nH]c34)cc2)CC1 [Example #198, 1-(4-(4-((5-(thiazol-4-yl)-1H-pyrazolo[4,3-d]pyrimidin-7-yl)amino)phenyl)piperazin-1-yl)ethan-1-one]
17 | < 10 | 100 to 1000 | COc1ccc(Nc2nc(-c3cccc(F)c3)nc3cn[nH]c23)cc1OC [Example #234, N-(3,4-dimethoxyphenyl)-5-(3-fluorophenyl)-1H-pyrazolo[4,3-d]pyrimidin-7-amine]

Row | Ki (SYK kinase) [nM] | IC50 (LRRK2) [nM] | Compound
18 | 10 to 100 | 10 to 100 | COc1ccc(Nc2nc(-c3cscn3)nc3cn[nH]c23)cc1OC [Example #199, N-(3,4-dimethoxyphenyl)-5-(thiazol-4-yl)-1H-pyrazolo[4,3-d]pyrimidin-7-amine]
19 | < 10 | 10 to 100 | COc1ccc(Nc2nc(-c3cccc(S(N)(=O)=O)c3)nc3cn[nH]c23)cc1OC [Example #183, 3-(7-((3,4-dimethoxyphenyl)amino)-1H-pyrazolo[4,3-d]pyrimidin-5-yl)benzenesulfonamide]
20 | < 10 | 100 to 1000 | c1csc(-c2nc(Nc3ccc4c(c3)COC4)c3[nH]ncc3n2)c1 [Example #304, N-(1,3-dihydroisobenzofuran-5-yl)-5-(thiophen-2-yl)-1H-pyrazolo[4,3-d]pyrimidin-7-amine]
21 | < 10 | 10 to 100 | c1cc(-c2nc(Nc3ccc(N4CCOCC4)cc3)c3[nH]ncc3n2)cs1 [Example #73, N-(4-morpholinophenyl)-5-(thiophen-3-yl)-1H-pyrazolo[4,3-d]pyrimidin-7-amine]
22 | < 10 | 100 to 1000 | CN1CCN(C2CCN(c3ccc(Nc4nc(-c5ccccc5F)nc5cn[nH]c45)cc3)CC2)CC1 [Example #278, 5-(2-fluorophenyl)-N-(4-(4-(4-methylpiperazin-1-yl)piperidin-1-yl)phenyl)-1H-pyrazolo[4,3-d]pyrimidin-7-amine]
23 | < 10 | 100 to 1000 | CN1CCN(c2ccc(Nc3nc(-c4cocn4)nc4cn[nH]c34)cc2)CC1 [Example #200, N-(4-(4-methylpiperazin-1-yl)phenyl)-5-(oxazol-4-yl)-1H-pyrazolo[4,3-d]pyrimidin-7-amine]
24 | 10 to 100 | 100 to 1000 | COc1ccc(Nc2nc(-c3nc4ccccc4s3)nc3cn[nH]c23)cc1OC [Example #96, 5-(benzo[d]thiazol-2-yl)-N-(3,4-dimethoxyphenyl)-1H-pyrazolo[4,3-d]pyrimidin-7-amine]
25 | < 10 | 100 to 1000 | CS(=O)(=O)c1cccc(-c2nc(Nc3ccc(N4CCOCC4)cc3)c3[nH]ncc3n2)c1 [Example #251, 5-(3-(methylsulfonyl)phenyl)-N-(4-morpholinophenyl)-1H-pyrazolo[4,3-d]pyrimidin-7-amine]
26 | < 10 | 100 to 1000 | CN1CCN(c2ccc(Nc3nc(-c4cscn4)nc4cn[nH]c34)cc2)CC1 [Example #197, N-(4-(4-methylpiperazin-1-yl)phenyl)-5-(thiazol-4-yl)-1H-pyrazolo[4,3-d]pyrimidin-7-amine]
27 | < 10 | 10 to 100 | c1csc(-c2nc(Nc3ccc(N4CCOCC4)cc3)c3[nH]ncc3n2)c1 [Example #69, N-(4-morpholinophenyl)-5-(thiophen-2-yl)-1H-pyrazolo[4,3-d]pyrimidin-7-amine]
28 | 10 to 100 | 100 to 1000 | O=C1COc2ccc(Nc3nc(-c4ccsc4)nc4cn[nH]c34)cc2N1 [Example #146, 6-((5-(thiophen-3-yl)-1H-pyrazolo[4,3-d]pyrimidin-7-yl)amino)-2H-benzo[b][1,4]oxazin-3(4H)-one]
29 | < 10 | 100 to 1000 | COc1ccc(-c2nc(Nc3ccc(N4CCN(C)CC4)cc3)c3[nH]ncc3n2)cc1 [Example #66, 5-(4-methoxyphenyl)-N-(4-(4-methylpiperazin-1-yl)phenyl)-1H-pyrazolo[4,3-d]pyrimidin-7-amine]
30 | < 10 | < 10 | c1csc(-c2nc(Nc3ccc4cn[nH]c4c3)c3[nH]ncc3n2)c1 [Example #82, N-(1H-indazol-6-yl)-5-(thiophen-2-yl)-1H-pyrazolo[4,3-d]pyrimidin-7-amine]
31 | 10 to 100 | 10 to 100 | COc1cccc(-c2nc(Nc3ccc4c(c3)NCCO4)c3[nH]ncc3n2)c1 [Example #89, N-(5-(3-methoxyphenyl)-1H-pyrazolo[4,3-d]pyrimidin-7-yl)-3,4-dihydro-2H-benzo[b][1,4]oxazin-6-amine]
32 | < 10 | 10 to 100 | CN1CCN(C2CCN(C(=O)c3ccc(Nc4nc(-c5cccs5)nc5cn[nH]c45)cc3)CC2)CC1 [Example #297, (4-(4-methylpiperazin-1-yl)piperidin-1-yl)(4-((5-(thiophen-2-yl)-1H-pyrazolo[4,3-d]pyrimidin-7-yl)amino)phenyl)methanone]
33 | < 10 | 10 to 100 | Fc1cccc(-c2nc(Nc3ccc(N4CCOCC4)cc3)c3[nH]ncc3n2)c1 [Example #235, 5-(3-fluorophenyl)-N-(4-morpholinophenyl)-1H-pyrazolo[4,3-d]pyrimidin-7-amine]
34 | < 10 | 10 to 100 | COc1ccc(-c2nc(Nc3ccc4cn[nH]c4c3)c3[nH]ncc3n2)cc1 [Example #79, N-(1H-indazol-6-yl)-5-(4-methoxyphenyl)-1H-pyrazolo[4,3-d]pyrimidin-7-amine]
